Earlier results as cited in patent US6537758B2, “Method for isolating nucleic acid from micronuclei separated from a cell” (The Salk Institute for Biological Studies, priority 1995, dated 2003).

What was measured:
[1] = system: mouse cells with unstably amplified dihydrofolate reductase (DHFR) genes
HL60 cells = settings: low concentrations of HU

NC(=O)NO [hydroxyurea]
rate of loss of unstably amplified DHFR genes [1]: increase the rate of loss | elimination of genes amplified on DMs (cells containing DMs; HU at concentrations that do not inhibit DNA synthesis or ribonucleotide reductase): eliminated | micronuclei formation (cells containing DMs; HU-treatment of cells containing DMs): increase in micronuclei formation | c-myc expression (HL60 cells): decreased c-myc expression | differentiation (HL60 cells): induction of differentiation | number of c-myc-containing DMs (HL60 cells): reduced the number of c-myc-containing DMs
